Read-outs that look alike come from different tables or passages of the source.
Target: T1, human TSHR (Homo sapiens, UniProt P16473)
T1 construct: expressed in transfected cells
Assay: Homogeneous Time Resolved Fluorescence (HTRF) cAMP assay, TSHR cell line
Format: cell-based
Conditions: for Maximum Activity compared to TSH: 100% activity = response of 30 mU/ml TSH, 0% = DMSO control, in %; for AC50: TSHR cell line, 30 minute incubation; for Emax: read-out: Maximum Activity compared to TSH, 100% activity = response of 30 mU/ml TSH, 0% = DMSO control; call rule not given here
Excerpt: Generation of Stable Cell-Lines Expressing TSHR, LHCGR or FSHR.
cDNA for human TSHR was amplified by PCR from hTSHR-pSVL (1) and inserted into the pcDNA3.1(−)/hygromycin vector using restriction sites XhoI and BamHI. cDNA for human LHCGR was amplified by PCR from hLHR-pGS5 (2) and was inserted into the pcDNA3.1(+)/hygromycin vector using restriction sites BamHI and XhoI. The FSHR cDNA in pcDNA3.1 was obtained from the Missouri S&T cDNA Resource Center (www.cDNA.org) and was subcloned into the pcDNA3.1(−)/hygromycin vector. Constructs were confirmed by sequencing (MWG Biotech). HEK-EM 293 cells were transfected with the cDNA of TSHR, LHCGR or FSHR using FuGENE 6 Transfection reagent (Roche Diagnostics) according to the manufacturer's protocol. Two days after transfection cells were passaged and grown in Dulbecco's modified Eagle's Medium (DMEM) supplemented with 10% fetal bovine serum, 100 units/ml penicillin and 10 μg/ml streptomycin (Life Technologies Inc.) and with hygromycin (250 μg/ml) as a selection marker. After 7 to 10 days hygromycin-resistant clones were selected, and after a few days of further growth submitted for a cAMP assay to identify clones that stably express the appropriate receptor. Cell Culture. Cells stably expressing TSHR, LHCGR or FSHR and parental HEK 293 cells were maintained in DMEM medium containing 10% FBS, 100 units/ml Penicillin, 100 μg/ml Streptomycin, at 37° C. in 5% CO2. For the cells lines stably expressing TSHR, LHCGR or FSHR, additional 250 μg/ml Hygromycin was added during the cell culture. The cells were seeded at a density of 3 to 4 million cells in a T175 flask containing 35 ml of media and were allowed to grow for 3 days to reach 80-90% confluence. A flask of HEK 293 cells at this density generally yielded 30 million cells total. Homogeneous Time Resolved Fluorescence (HTRF) cAMP Assay. Compounds were assayed using a HTRF cAMP detection kit (Cisbio, Bedford, Mass.) on both TSHR cell line and parental cell line. Briefly, 750 cells were plated in 2.5 μl/well of complete media (DMEM containing 10% FCS) in 1536 well solid bottom white plates and 20 nl/well compound in DMSO solution or controls was added. Following 30 minute incubation at room temperature, 2.5 μl/well of labeled d2 cAMP and 2.5 μl/well of anti-cAMP antibody (both diluted 1:20 in lysis buffer) were added to each well using a flying reagent dispenser (Aurora Discovery, San Diego). Plates were measured using the Envision plate reader (PerkinElmer, Boston, Mass.) with excitation at 330 nm and emissions of 615 nm and 660 nm. Compound Preparation. […] Data Analysis. […] The EC50 values of compounds were calculated from the concentration-response curves by nonlinear regression analysis using Prism software (GraphPad Software, San Diego, Calif.). Confirmatory cAMP Assay and Test for Selectivity Towards TSHR 50,000 cells/well were plated in complete media (DMEM containing 10% FCS) in 96 well plates. […] Following aspiration of the medium after incubation with compounds, cells were lysed using lysis buffer of the cAMP-Screen Direct™ System (Applied Biosystems, Cat # CSD200). The cAMP content of the cell lysate was determined using the manufacturer's protocol. […] Below is a List of Compounds that were Assayed via the Homogeneous Time Resolved Fluorescence (HTRF) cAMP Assay.

T1 sequence (P16473 21-764): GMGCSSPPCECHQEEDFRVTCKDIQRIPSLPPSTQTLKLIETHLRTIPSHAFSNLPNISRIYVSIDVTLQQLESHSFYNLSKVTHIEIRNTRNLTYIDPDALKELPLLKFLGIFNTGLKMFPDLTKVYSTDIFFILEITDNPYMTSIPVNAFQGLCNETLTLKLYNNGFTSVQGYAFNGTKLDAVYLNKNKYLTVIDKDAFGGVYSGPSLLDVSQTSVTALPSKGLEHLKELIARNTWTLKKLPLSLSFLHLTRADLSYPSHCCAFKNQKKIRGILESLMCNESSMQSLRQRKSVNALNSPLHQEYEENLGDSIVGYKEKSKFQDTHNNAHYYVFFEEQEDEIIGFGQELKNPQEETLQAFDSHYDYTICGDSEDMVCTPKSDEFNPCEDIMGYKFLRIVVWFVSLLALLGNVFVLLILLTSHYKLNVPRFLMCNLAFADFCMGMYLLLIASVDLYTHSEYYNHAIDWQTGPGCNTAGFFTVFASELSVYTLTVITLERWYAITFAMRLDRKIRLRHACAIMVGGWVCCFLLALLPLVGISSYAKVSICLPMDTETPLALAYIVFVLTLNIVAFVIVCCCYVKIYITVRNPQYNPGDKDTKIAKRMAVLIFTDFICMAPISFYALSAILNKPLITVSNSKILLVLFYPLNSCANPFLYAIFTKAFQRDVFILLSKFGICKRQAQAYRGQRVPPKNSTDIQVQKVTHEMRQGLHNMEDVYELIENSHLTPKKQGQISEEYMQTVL

Row | Structure (SMILES) | Maximum Activity compared to TSH | AC50 (HTRF cAMP, read-out: AC50) | AC50 (AC50, HTRF cAMP) | AC50 (HTRF cAMP) | Emax
1 | COc1ccc(CN(Cc2ccccc2)C(=O)c2ccccc2O)cc1COc1ccc(NC(C)=O)cc1 [Structure 220] | 32.00 | 17.8 µM |  |  | 
2 | COc1ccc(C2Nc3ccccc3C(=O)N2Cc2ccccn2)cc1COc1ccc(NC(C)=O)cc1 (stereo not shown) [Structure 269] | 28.00 | 25.1 µM |  |  | 
3 | COc1ccc(C2Nc3ccccc3C(=O)N2Cc2ccccc2)cc1COc1ccc(NC(C)=O)cc1 (single isomer, unassigned) [Structure 63] | 166.46 |  | 5.01 µM |  | 
4 | COc1ccc(C2Nc3ccccc3C(=O)N2CCc2ccc(Cl)cc2Cl)cc1COc1ccc(NC(C)=O)cc1 (stereo not shown) [Structure 225] |  |  |  | inactive | 
5 | O=C(c1ccccc1O)N(Cc1cccs1)Cc1cccs1 [Structure 133] |  | 31.6 µM |  |  | 55.3%
6 | COc1ccc(C2Nc3ccccc3C(=O)N2Cc2ccccc2)cc1CSc1ccc(NC(C)=O)cc1 (stereo not shown) [Structure 22] | 463.89 | 7.94 µM |  |  | 
7 | COc1ccc(CN(Cc2ccccc2)C(C)=O)cc1COc1ccc(NC(C)=O)cc1 [Structure 161] |  |  |  | inactive | 
8 | COc1ccc(-c2nc3ccc(NC(C)=O)cc3c(=O)n2Cc2cccc(Cl)c2)cc1COc1ccc(NC(C)=O)cc1 [Structure 155] | 25.50 | 12.6 µM |  |  | 
9 | COc1ccc(C2Nc3ccccc3C(=O)N2Cc2ccccc2)cc1COc1ccc(NC(C)=O)cc1 (single isomer, unassigned) [Structure 49] | 134.24 |  | 3.55 µM |  | 
10 | O=C1CC(c2ccco2)CC2=C1C(c1ccc(O)cc1)n1nc(C(F)(F)F)nc1N2 (stereo not shown) [Structure 213] |  |  |  | inactive | 
11 | COc1ccc(C2Nc3ccccc3C(=O)N2Cc2ccccc2)cc1COc1ccc(NC(C)=O)cc1 (single isomer, unassigned) [Structure 25] | 207.56 |  | 8.91 µM |  | 
12 | COc1ccc(C2Nc3ccccc3C(=O)N2Cc2cccc(Cl)c2)cc1COc1ccc(NC(C)=O)cc1 (stereo not shown) [Structure 11] | 113.94 | 3.16 µM |  |  | 
13 | COc1ccc(-c2nc3ccc(NC(=O)CO)cc3c(=O)n2Cc2cccc(Cl)c2)cc1COc1ccc(NC(C)=O)cc1 [Structure 80] |  | 22.4 µM |  |  | 40%
14 | CC(=O)Nc1cccc(OCc2cccc(C3Nc4ccccc4C(=O)N3Cc3ccco3)c2)c1 (stereo not shown) [Structure 193] |  |  |  | inactive | 
15 | COc1ccc(C2Nc3ccc(NC(=O)COC(C)=O)cc3C(=O)N2Cc2ccccc2)cc1COc1ccc(NC(C)=O)cc1 (stereo not shown) [Structure 66] | 64.52 | 8.91 µM |  |  | 
16 | COc1ccc(CN(Cc2ccccc2)C(=O)c2ccccc2O)cc1 [Structure 291] | 38.00 | 35.5 µM |  |  | 
17 | COc1ccc(C(=O)N(Cc2ccco2)Cc2ccco2)c(O)c1 [Structure 121] | 38.00 | 39.8 µM |  |  | 
18 | O=c1c2ccccc2nc(-c2ccccc2O)n1Cc1ccccc1 [Structure 192] |  |  |  | inactive | 
19 | COc1ccc2c(c1OC)C(=O)N1c3ccccc3C(=O)N(Cc3ccco3)C21 (stereo not shown) [Structure 158] |  |  |  | inactive | 
20 | COc1ccc(C2Nc3ccccc3C(=O)N2Cc2ccncc2)cc1COc1ccc(NC(C)=O)cc1 (stereo not shown) [Structure 132] | 44.00 | 31.6 µM |  |  | 
21 | COc1ccc(CN(Cc2ccccc2)C(=O)c2cccc(C#N)c2)cc1COc1ccc(NC(C)=O)cc1 [Structure 75] | 70.09 | 20 µM |  |  | 
22 | COc1ccc(C2Nc3ccccc3C(=O)N2Cc2ccco2)cc1COc1ccc(NC(C)=O)cc1 (stereo not shown) [Structure 91] | 88.07 | 15.8 µM |  |  | 
23 | COc1ccc(C2Nc3ccccc3C(=O)N2Cc2ccccc2)cc1COc1cccc(C(F)(F)F)c1 (stereo not shown) [Structure 164] |  |  |  | inactive | 

Row | Structure (SMILES) | Maximum Activity compared to TSH | AC50 (HTRF cAMP, read-out: AC50) | AC50 (AC50, HTRF cAMP) | AC50 (HTRF cAMP) | Emax
24 | O=C(c1ccccc1O)N(Cc1ccco1)Cc1cccs1 [Structure 113] |  | 39.8 µM |  |  | 63.8%
25 | COc1ccc(C2Nc3ccccc3C(=O)N2Cc2ccccc2)cc1COc1ccc(NC(C)=O)cc1 (single isomer, unassigned) [Structure 55] | 194.91 |  | 7.94 µM |  | 
26 | COc1ccc(CN2C(=O)c3ccccc3NC2c2ccc(OC)c(COc3ccc(NC(C)=O)cc3)c2)cc1 (stereo not shown) [Structure 3] | 93.95 | 4.47 µM |  |  | 
27 | COc1cccc(CN2C(=O)c3ccccc3NC2c2ccc(OC)c(COc3ccc(NC(C)=O)cc3)c2)c1 (stereo not shown) [Structure 18] | 215.89 | 6.31 µM |  |  | 
28 | COc1ccc(CN(Cc2ccccc2)C(=O)c2ccccc2N)cc1COc1ccc(NC(C)=O)cc1 [Structure 21] | 236.35 | 25.1 µM |  |  | 
29 | COc1cccc(CN2C(=O)c3ccccc3NC2c2ccc(OC)c(COc3ccc(NC(C)=O)cc3)c2)c1 (stereo not shown) [Structure 46] | 182.52 | 7.94 µM |  |  | 
30 | COc1ccc(C2Cc3ccccc3C(=O)N2Cc2ccccc2)cc1COc1ccc(NC(C)=O)cc1 (stereo not shown) [Structure 54] | 115.69 | 10 µM |  |  | 
31 | COc1ccc(CN(Cc2ccccc2)C(=O)c2ccccc2)cc1COc1ccc(NC(C)=O)cc1 [Structure 5] | 174.77 | 15.8 µM |  |  | 
32 | COc1ccc(C2Nc3ccccc3C(=O)N2Cc2ccccc2)cc1COc1ccc(Cl)cc1 (stereo not shown) [Structure 238] |  |  |  | inactive | 
33 | COc1ccc(C2Nc3ccccc3C(=O)N2Cc2ccccc2)cc1COc1ccc(NC(C)=O)cc1 (single isomer, unassigned) [Structure 4] | 171.91 |  | 7.08 µM |  | 
34 | COc1ccc(C2Nc3ccccc3C(=O)N2Cc2ccccc2)cc1CSc1ccc(NC(C)=O)cc1 (stereo not shown) [Structure 38] | 573.36 | 7.08 µM |  |  | 
35 | CC(=O)Nc1ccc(OCc2cccc(C3Nc4ccccc4C(=O)N3Cc3ccco3)c2)cc1 (stereo not shown) [Structure 165] |  |  |  | inactive | 
36 | COc1ccc(OCc2cc(C3Nc4ccccc4C(=O)N3Cc3ccccc3)ccc2OC)cc1 (stereo not shown) [Structure 256] | 24.00 | 5.01 µM |  |  | 
37 | COc1ccc(C2Nc3ccccc3C(=O)N2Cc2ccccc2C)cc1COc1ccc(NC(C)=O)cc1 (stereo not shown) [Structure 280] |  | 17.8 µM |  |  | 24%
38 | COc1ccc(C2Nc3ccccc3C(=O)N2Cc2ccco2)cc1COc1ccc(NC(C)=O)cc1 (stereo not shown) [Structure 19] | 142.18 | 15.8 µM |  |  | 
39 | COc1ccc(C2Oc3ccccc3C(=O)N2Cc2ccccc2)cc1COc1ccc(NC(C)=O)cc1 (stereo not shown) [Structure 78] | 66.16 | 8.91 µM |  |  | 
40 | COc1ccc(C2Nc3ccccc3C(=O)N2CCc2ccccc2)cc1COc1ccc(NC(C)=O)cc1 (stereo not shown) [Structure 67] | 82.36 | 7.94 µM |  |  | 
41 | COc1ccc(C(=O)N(Cc2ccccc2)Cc2ccco2)c(O)c1 [Structure 118] | 96.91 | 28.2 µM |  |  | 
42 | COc1ccc([C@H]2[C@H](c3ccccc3)C(=O)N2Cc2ccccc2)cc1COc1ccc(NC(C)=O)cc1 [Structure 85] | 54.95 |  |  |  | 
43 | COc1ccc(C2Nc3ccccc3C(=O)N2Cc2ccccc2)cc1COc1ccc(NC(C)=O)cc1 (single isomer, unassigned) [Structure 2] | 217.29 |  | 11.2 µM |  | 
44 | COc1ccc(C2Nc3ccccc3C(=O)N2Cc2cccc3ccccc23)cc1COc1ccc(NC(C)=O)cc1 (stereo not shown) [Structure 86] | 51.11 | 6.31 µM |  |  | 
45 | COc1ccc(CN(Cc2ccccc2)[S+](=O)([O-])c2ccccc2)cc1COc1ccc(NC(C)=O)cc1 [Structure 223] |  |  |  | inactive | 
